Data published in ChEMBL document CHEMBL1221222, “Analysis of the eukaryotic prenylome by isoprenoid affinity tagging” (Nat Chem Biol, 2009).
Active and inactive are the calls of the source. No cut-off for these calls is given here.

Assays:
[1] = system: Geranylgeranyl transferase type-1 subunit beta (Homo sapiens), P53609 [F52Y,Y126T]; assay: Binding affinity to GGTase-1 F52Y/Y126T mutant assessed as prenylation of RhoA GTPase by Western blot method
[2] = system: Protein farnesyltransferase subunit beta (Homo sapiens), P49356 [W102T]; assay: Binding affinity to FTase W102T mutant assessed as prenylation of Ki-Ras by ESI-MS analysis
Chain of Protein farnesyltransferase subunit beta (Homo sapiens), P49356 [W102T] (P49356 whole entry W102T): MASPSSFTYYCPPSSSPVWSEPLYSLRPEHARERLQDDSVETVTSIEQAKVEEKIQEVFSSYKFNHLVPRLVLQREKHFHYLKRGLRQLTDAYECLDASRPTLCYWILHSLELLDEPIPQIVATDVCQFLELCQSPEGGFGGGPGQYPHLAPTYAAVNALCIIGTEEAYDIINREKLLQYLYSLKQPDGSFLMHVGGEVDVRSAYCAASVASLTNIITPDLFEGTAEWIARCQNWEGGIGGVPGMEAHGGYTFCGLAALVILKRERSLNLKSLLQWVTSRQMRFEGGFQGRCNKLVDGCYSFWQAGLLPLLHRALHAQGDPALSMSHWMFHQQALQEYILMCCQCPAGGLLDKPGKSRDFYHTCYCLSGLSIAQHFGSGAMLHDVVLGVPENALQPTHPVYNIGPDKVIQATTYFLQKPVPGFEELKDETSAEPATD

[3] = Binding affinity to RabGGTase assessed as prenylation of Rab27 by SDS PAGE
[4] = system: Protein farnesyltransferase subunit beta (Homo sapiens), P49356 [W102T,Y365F]; assay: Binding affinity to FTase W102T/Y365F mutant assessed as prenylation of CFP-CAAX by ESI-MS analysis
Chain of Protein farnesyltransferase subunit beta (Homo sapiens), P49356 [W102T,Y365F] (P49356 whole entry W102T/Y365F): as the sequence (P49356 whole entry W102T) above, with Y365F counted along it

COS-7 [5] = assay: Binding affinity to GGTase-1 F53Y/Y126T mutant in african green monkey COS7 lysate assessed as prenylation of RhoA by Western blot method
[6] = system: Protein farnesyltransferase subunit beta (Homo sapiens), P49356 [W102T,Y365F]; assay: Binding affinity to FTase W102T/Y365F mutant assessed as prenylation of Ki-Ras by Western blot analysis
[7] = Binding affinity to RabGGTase assessed as prenylation of Rab7 by SDS PAGE
[8] = system: Protein farnesyltransferase subunit beta (Homo sapiens), P49356 [W102T]; assay: Binding affinity to FTase W102T mutant assessed as prenylation of CFP-CAAX by Western blot analysis
[9] = system: Protein farnesyltransferase subunit beta (Homo sapiens), P49356 [W102T]; assay: Binding affinity to FTase W102T mutant assessed as prenylation of Ki-Ras by Western blot analysis
[10] = Binding affinity to GGTase-1 by NBD fluorescence assay
[11] = Binding affinity to GGTase-1 F53Y/Y126T mutant assessed as prenylation of RhoA GTPase by Western blot method
[12] = system: Protein farnesyltransferase subunit beta (Homo sapiens), P49356 [W102T,Y154T]; assay: Binding affinity to FTase W102T/Y154T mutant assessed as prenylation of CFP-CAAX by ESI-MS analysis
Chain of Protein farnesyltransferase subunit beta (Homo sapiens), P49356 [W102T,Y154T] (P49356 whole entry W102T/Y154T): as the sequence (P49356 whole entry W102T) above, with Y154T counted along it

[13] = system: Protein farnesyltransferase subunit beta (Homo sapiens), P49356 [W102T,Y154T,Y205T]; assay: Binding affinity at FTase W102T/Y154T/Y205T mutant in african green monkey COS7 lysate assessed as protein prenylation by two-dimensional SDS-PAGE method; details: COS-7
Chain of Protein farnesyltransferase subunit beta (Homo sapiens), P49356 [W102T,Y154T,Y205T] (P49356 whole entry W102T/Y154T/Y205T): as the sequence (P49356 whole entry W102T) above, with Y154T, Y205T counted along it

[14] = system: Protein farnesyltransferase subunit beta (Homo sapiens), P49356 [W102T,Y154T]; assay: Binding affinity to FTase W102T/Y154T mutant in african green monkey COS7 lysate assessed as prenylation of CFP-CAAX by Western blot method; details: COS-7
[15] = system: Geranylgeranyl transferase type-1 subunit beta (Homo sapiens), P53609 [F52Y,F53Y,Y126T]; assay: Binding affinity to GGTase-1 F52Y/F53Y/Y126T mutant in african green monkey COS7 lysate assessed as prenylation of RhoA by Western blot method; details: COS-7
Chain of Geranylgeranyl transferase type-1 subunit beta (Homo sapiens), P53609 [F52Y,F53Y,Y126T] (P53609 whole entry F52Y/F53Y/Y126T): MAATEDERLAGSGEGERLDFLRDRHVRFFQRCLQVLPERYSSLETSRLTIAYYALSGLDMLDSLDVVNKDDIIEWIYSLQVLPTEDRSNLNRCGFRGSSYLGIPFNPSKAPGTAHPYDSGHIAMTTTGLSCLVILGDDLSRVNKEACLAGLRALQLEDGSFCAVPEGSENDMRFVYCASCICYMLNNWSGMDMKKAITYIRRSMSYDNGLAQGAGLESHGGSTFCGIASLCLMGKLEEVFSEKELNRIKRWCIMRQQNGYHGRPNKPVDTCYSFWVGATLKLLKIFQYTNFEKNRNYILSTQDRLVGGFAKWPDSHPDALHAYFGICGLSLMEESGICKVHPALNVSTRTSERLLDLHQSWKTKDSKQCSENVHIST

[16] = system: Protein farnesyltransferase subunit beta (Homo sapiens), P49356 [Y154T]; assay: Binding affinity to FTase Y154T mutant assessed as prenylation of CFP-CAAX by ESI-MS analysis
Chain of Protein farnesyltransferase subunit beta (Homo sapiens), P49356 [Y154T] (P49356 whole entry Y154T): as the sequence (P49356 whole entry W102T) above, with T102W, Y154T counted along it

[17] = Binding affinity to GGTase-1 assessed as prenylation of RhoA by SDS PAGE
[18] = system: Protein farnesyltransferase subunit beta (Homo sapiens), P49356 [W102T,Y154T,Y205T]; assay: Binding affinity to FTase W102T/Y154T/Y205T mutant in african green monkey COS7 lysate assessed as prenylation of CFP-CAAX by Western blot method; details: COS-7
[19] = Binding affinity to GGTase-1 F53Y/Y126T mutant assessed as prenylation of dansyl-labeled GCVLS by fluorescence based assay
[20] = system: Protein farnesyltransferase subunit beta (Homo sapiens), P49356 [W102T]; assay: Binding affinity to FTase W102T mutant assessed as prenylation of CFP-CAAX by ESI-MS analysis
[21] = system: Protein farnesyltransferase subunit beta (Homo sapiens), P49356 [Y154T]; assay: Binding affinity to FTase Y154T mutant assessed as prenylation of Ki-Ras by ESI-MS analysis
[22] = system: Protein farnesyltransferase subunit beta (Homo sapiens), P49356 [W102T,Y154T]; assay: Binding affinity to FTase W102T/Y154T mutant assessed as prenylation of CFP-CAAX by Western blot analysis
[23] = system: Geranylgeranyl transferase type-1 subunit beta (Homo sapiens), P53609 [Y126T]; assay: Binding affinity to GGTase-1 Y126T mutant assessed as prenylation of RhoA GTPase by Western blot method
Chain of Geranylgeranyl transferase type-1 subunit beta (Homo sapiens), P53609 [Y126T] (P53609 whole entry Y126T): as the sequence (P53609 whole entry F52Y/F53Y/Y126T) above, with Y52F, Y53F counted along it

[24] = system: Protein farnesyltransferase subunit beta (Homo sapiens), P49356 [W102T,Y365F]; assay: Binding affinity to FTase W102T/Y365F mutant assessed as prenylation of Ki-Ras by ESI-MS analysis
[25] = Binding affinity to FTase assessed as prenylation of Ki-Ras by SDS PAGE
[26] = system: Protein farnesyltransferase subunit beta (Homo sapiens), P49356 [Y154T]; assay: Binding affinity to FTase Y154T mutant assessed as prenylation of CFP-CAAX by Western blot analysis
COS-7 [27] = assay: Binding affinity to wild type FTase in african green monkey COS7 lysate assessed as prenylation of CFP-CAAX by Western blot method
COS-7 [28] = assay: Binding affinity to RabGGTase in african green monkey COS7 lysate assessed as prenylation of Rab by two-dimensional SDS-PAGE method
[29] = Binding affinity to RabGGTase by NBD fluorescence assay
[30] = Binding affinity to GGTase-1 F53Y/Y126T mutant assessed as prenylation of dansyl-labeled GCVLL by fluorescence based assay
[31] = Binding affinity to FTase by X-ray crystallography
COS-7 [32] = assay: Binding affinity to GGTase-1 F53Y/Y126T mutant in african green monkey COS7 lysate assessed as protein prenylation by two-dimensional SDS-PAGE method
[33] = system: Protein farnesyltransferase subunit beta (Homo sapiens), P49356 [W102T,Y365F]; assay: Binding affinity to FTase W102T/Y365F mutant assessed as prenylation of CFP-CAAX by Western blot analysis
[34] = system: Protein farnesyltransferase subunit beta (Homo sapiens), P49356 [Y154T]; assay: Binding affinity to FTase Y154T mutant assessed as prenylation of Ki-Ras by Western blot analysis
[35] = system: Protein farnesyltransferase subunit beta (Homo sapiens), P49356 [W102T,Y154T]; assay: Binding affinity to FTase W102T/Y154T mutant assessed as prenylation of Ki-Ras by Western blot analysis
[36] = system: Protein farnesyltransferase subunit beta (Homo sapiens), P49356 [W102T,Y154T]; assay: Binding affinity to FTase W102T/Y154T mutant assessed as prenylation of Ki-Ras by ESI-MS analysis

Chain of Geranylgeranyl transferase type-1 subunit beta (Homo sapiens), P53609 [F52Y,Y126T] (P53609 whole entry F52Y/Y126T): as the sequence (P53609 whole entry F52Y/F53Y/Y126T) above, with Y53F counted along it

Question: Which Activity [1] does the source give for `C/C(=C\COP(=O)(O)OP(=O)(O)O)CC/C=C(\C)CNC(=O)CCCC[C@@H]1SC[C@@H]2NC(=O)N[C@@H]21` [biotin-geranylpyrophosphate] here?
Answer: inactive

Question: And the Activity [2]?
Answer: inactive

Question: What about the Activity [3] of the same compound?
Answer: Active

Question: What about the Activity [4] of the same compound?
Answer: inactive

Question: And the Activity (COS-7 [5])?
Answer: Active

Question: What about the Activity [6] of the same compound?
Answer: inactive

Question: What about the Activity [7] of the same compound?
Answer: Active

Question: What about the Activity [8] of the same compound?
Answer: inactive

Question: What about the Activity [9] of the same compound?
Answer: inactive

Question: What about the Kd [10] of the same compound?
Answer: 45 nM

Question: What about the Activity [11] of the same compound?
Answer: Active

Question: What about the Activity [12] of the same compound?
Answer: Active

Question: And the Activity [13]?
Answer: Active

Question: And the Activity [14]?
Answer: Active

Question: And the Activity [15]?
Answer: Active

Question: What about the Activity [16] of the same compound?
Answer: inactive

Question: And the Activity [17]?
Answer: inactive

Question: And the Activity [18]?
Answer: Active

Question: What about the Activity [19] of the same compound?
Answer: inactive

Question: And the Activity [20]?
Answer: inactive

Question: What about the Activity [21] of the same compound?
Answer: inactive

Question: What about the Activity [22] of the same compound?
Answer: Active

Question: What about the Activity [23] of the same compound?
Answer: Active

Question: What about the Activity [24] of the same compound?
Answer: inactive

Question: What about the Activity [25] of the same compound?
Answer: inactive

Question: What about the Activity [26] of the same compound?
Answer: inactive

Question: What about the Activity (COS-7 [27]) of the same compound?
Answer: Active

Question: And the Activity (COS-7 [28])?
Answer: Active

Question: What about the Kd [29] of the same compound?
Answer: 2.2 nM

Question: What about the Activity [30] of the same compound?
Answer: inactive

Question: What about the Activity [31] of the same compound?
Answer: Active

Question: And the Activity (COS-7 [32])?
Answer: Active

Question: What about the Activity [33] of the same compound?
Answer: inactive

Question: What about the Activity [34] of the same compound?
Answer: inactive

Question: What about the Activity [35] of the same compound?
Answer: Active

Question: What about the Activity [36] of the same compound?
Answer: Active
